Measured values as given in patent US12551368B2, “Bioerodible ocular drug delivery insert and therapeutic method” (EyePoint Pharmaceuticals, Inc., priority 2020, dated 2026).

Experiments:
[1] = system: Laser-Induced Choroidal Neovascularization (CNV); test: Laser-Induced Choroidal Neovascularization (CNV) model, fluorescein angiography (Example 7); format: in vivo, Swine (Mini-pig)
Method: Safety and efficacy of a vorolanib insert were evaluated in a Swine (Mini-pig) Model of Laser-Induced Choroidal Neovascularization (CNV). The primary objective of this study was to evaluate the long-term safety and inhibition of vascular permeability and neovascularization in a laser-induced model of choroidal neovascularization (CNV) using a vorolanib insert in swine.
On the day of lasering (Groups 1-4) animals were treated with an 810 nm diode laser delivered through an indirect ophthalmoscope. Approximately 6 single laser spots were placed between retinal veins. Both eyes underwent laser treatment according to the schedule in the table above.
On the day of intravitreal injections animals were anesthetized and the eyes were aseptically prepared. […] Animals were allowed to recover normally from the procedure. The pigs were given a topical drop of antibiotic ophthalmic solution 4-6 hours later, and then BID for 2 additional days with at least 6 hours between doses. Animals were dosed on either Day 0 immediately following laser CNV induction or 7 days prior to laser CNV induction according to the schedule in the table above.
Flourescein Angiography was done in both eyes in anesthetized animals at the timepoints as indicated in the experimental design table.

[2] = cited from earlier work
[3] = Intravitreal Pharmacokinetic Study of vorolanib insert (Example 5); format: in vivo, Male Dutch Belted Rabbits
Method: An Intravitreal Pharmacokinetic Study was performed in Male Dutch Belted Rabbits. The objective of this study was to characterize the plasma and ocular tissue pharmacokinetics of a vorolanib insert following bilateral intravitreal injection on Day 1. Animals were evaluated up to 24 months following placement of the intravitreal insert.
The low dose group (1) received 3 inserts per eye for a total dose of 630 μg per eye. The high dose group (2) animals received 6 inserts per eye given in 2 separate injections (3 inserts per injection) for a total dose of 1,260 μg per eye.
Prior to each scheduled sacrifice point, one whole blood sample was collected from a targeted 2 animals per group via puncture of a marginal ear vein. Samples were tested for levels of vorolanib and its metabolite. Two animals per group were euthanized on day 1 at 6, 12, 24 and 48 hours, on days 7 and 14, and at 1, 2, 4, 6, 8, 16 and 24 months.

[4] = 18 month intravitreal toxicity and plasma pharmacokinetics study of the insert (Example 6); format: in vivo; conditions: rabbit
Method: An 18 month intravitreal toxicity study for the insert was also performed in 80 Dutch Belted rabbits (40 male and 40 female). Animals were evaluated for a period of 6 and 18 months following placement of intravitreal inserts. The objective was to characterize the ocular toxicity, plasma pharmacokinetics and biodegradation of a vorolanib insert following bilateral intravitreal injection.
The tables below describe the group assignments and dose levels. For the toxicology groups, animals were sacrificed at 6 months and 18 months. For the plasma pharmacokinetic analysis, blood samples were collected at Days 1, 3, and 7 and then 1, 2, 3, 4, 5, 6, 12, 14, 16 and 18 Months
The placebo group (1) animals received two placebo inserts by injection in each eye. The low dose group (2) animals received 2 inserts in each eye. The mid dose group (3) animals received 3 inserts in each eye given in 2 separate injections. The high dose group (4) animals received 4 inserts in each eye given in 2 separate injections (2 inserts/injection). The highest dose group (5) animals received 6 inserts in each eye given in 2 separate injections (3 inserts/injection).
At each scheduled timepoint, whole blood was collected via puncture of a marginal ear vein. Samples were analyzed for clinical pathology and plasma pharmacokinetics. Animals were euthanized according to the schedules described above. […]

## aflibercept: VEGF inhibitor used as comparator, 2 mg, 50 μL/eye IVT
[1]; Day 7 to Day 28, Aflibercept (2 mg), 50 μL/eye IVT
  reduction in Corrected Total Lesion Fluorescence (CTLF) value: largest reduction in CTLF values
[1]; IVT, swine
  overall efficacy in the CNV model: normal amounts of efficacy in this model

## CNC(=O)c1ccccc1Sc1ccc2c(/C=C/c3ccccn3)n[nH]c2c1 [axitinib, N-methyl-2-[3-((E)-2-pyridin-2-yl-vinyl)-1H-indazol-6-ylsulfanyl]-benzamide]
[2]; over the range pH 1.1 to pH 7.8
  solubility in aqueous media: > 0.2 µg/mL

## Cc1[nH]c(/C=C2\C(=O)Nc3ccc(F)cc32)c(C)c1C(=O)N[C@H]1CCN(C(=O)N(C)C)C1 [vorolanib, (S,Z)—N-(1-(Dimethylcarbamoyl)pyrrolidin-3-yl)-5-((5-fluoro-2-oxoindolin-3-ylidene)methyl)-2,4-dimethyl-1H-pyrrole-3-carboxamide]
[3]; 630 vs 1,260 μg per eye, rabbit
  dose proportionality of maximum observed concentrations in vitreous and retina/choroid: nearly dose-proportional
[3]; PK study, rabbit
  vorolanib plasma levels: low pg/mL range
[3]; after 99 days, rabbit
  change in plasma levels: No apparent change
[3]; at the time points tested, rabbit
  vorolanib levels in the vitreous and the retina/choroid relative to the IC50 for VEGFR: remained significantly above the IC50 for VEGFR
[3]; inserts in rabbit eye
  time at which steady state was reached: ≤ 105 days
[3]; inserts in rabbit eye, followed by steady state
  burst period of drug release in vivo: 90 days
[4]; 2 to 6 inserts per eye, bilateral intravitreal, toxicology study
  vorolanib plasma levels: low pg/mL range
[4]; intravitreal, up to 6 inserts per eye
  adverse findings: No adverse findings were attributed to vorolanib
[2]
  solubility in water: less than 0.1 μg/mL
